Results: patent US20090281054A1, “COMPOSITIONS AND METHODS COMPRISING CAPURAMYCIN ANALOGUES” (priority 2008, published 2009)
In brackets after ≈: the same amount, converted by molar mass. Where two headings read alike, the source gives them in different places.

How the values were obtained:
[1] = target: translocase I (Escherichia coli, UniProt P0A6W3); test: IC50 against translocase I; type: biochemical
[2] = tested on: M. smegmatis (MSMG; MC2155); test: MIC by microdilution method in 7H9 broth; type: cell-based; settings: Mycolicibacterium smegmatis, MC2155|MC^2155; MSMG MC^2155; 72 hr; read-out: MIC
[3] = tested on: M. abscessus (MAB; ATCC 700869); test: MIC by microdilution method in 7H9 broth; type: cell-based; settings: Mycobacteroides abscessus, ATCC700869; MAB 700869; read-out: MIC
[4] = tested on: M. kansaii (MKN; ATCC12478 & 35775); test: MIC by microdilution method in 7H9 broth; type: cell-based, M. kansasii; settings: Mycobacterium kansasii, read-out: MIC
[5] = tested on: M. avium complex (MAC); test: MIC by microdilution method in 7H9 broth; type: cell-based; settings: for MIC / MIC90: Mycobacterium avium; for MIC90: value in square brackets, read-out: MIC90
[6] = ATCC 12478 / ATCC 35775, MKN ATCC35775
[7] = 336 h, MAC isolates, 2 wk, read-out: MIC (range)
[8] = MAC strain NIH C1-1, read-out: MIC
[9] = MAC strain NIH C1-2, read-out: MIC
[10] = MAC strain NIH C1-3, read-out: MIC
[11] = MAC strain NIH C1-4, read-out: MIC

translocase I, sequence (P0A6W3 whole entry): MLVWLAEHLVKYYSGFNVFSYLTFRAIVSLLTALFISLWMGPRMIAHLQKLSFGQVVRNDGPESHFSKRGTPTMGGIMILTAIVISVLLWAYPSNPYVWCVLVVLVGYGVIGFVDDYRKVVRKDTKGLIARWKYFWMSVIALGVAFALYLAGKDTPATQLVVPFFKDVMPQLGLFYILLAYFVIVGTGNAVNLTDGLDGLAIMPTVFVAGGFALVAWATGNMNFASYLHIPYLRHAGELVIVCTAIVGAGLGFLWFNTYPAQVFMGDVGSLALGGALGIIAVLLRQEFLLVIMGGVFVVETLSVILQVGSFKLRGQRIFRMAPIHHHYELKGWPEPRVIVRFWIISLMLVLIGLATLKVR

Row | Compound | IC50 [1] [nM] | MIC [2] [µg/mL] | MIC [3] [µg/mL] | MIC [4, 6] [µg/mL] | MIC ([4]; MKN ATCC12478) [µg/mL] | MIC [5, 7] [µg/mL] | MIC ([5]; MAC strain 100, read-out: MIC) [µg/mL] | MIC ([5]; MAC strain 101, read-out: MIC) [µg/mL] | MIC ([5]; MAC strain 104, read-out: MIC) [µg/mL] | MIC ([5]; MAC strain 109, read-out: MIC) [µg/mL] | MIC ([5]; MAC strain A5, read-out: MIC) [µg/mL] | MIC ([5]; MAC strain JSH1, read-out: MIC) [µg/mL] | MIC [5, 8] [µg/mL] | MIC [5, 9] [µg/mL] | MIC [5, 10] [µg/mL] | MIC [5, 11] [µg/mL] | MIC90 ([5]; MAC isolates) [µg/mL] | IC50 against translocase I [1] [µg/mL] | MIC range ([5]; ten MAC isolates (Table 6)) [µg/mL]
1 | CO[C@H]1[C@@H](O)[C@H](n2ccc(=O)[nH]c2=O)O[C@@H]1[C@@H](O[C@H]1OC(C(=O)Nc2ccc(F)c(C(F)(F)F)c2)=C[C@H](O)[C@@H]1O)C(N)=O [RKS2137] | 12.9 | 4 (≈ 6.45 µM) | 8 (≈ 12.9 µM) | 2 (≈ 3.22 µM) | > 32 | 0.5 to 16 (≈ 0.806 to 25.8 µM) | 2 (≈ 3.22 µM) | 1 (≈ 1.61 µM) | 1 (≈ 1.61 µM) | 0.5 (≈ 0.806 µM) | 1 (≈ 1.61 µM) | 1 (≈ 1.61 µM) | 8 (≈ 12.9 µM) | 2 (≈ 3.22 µM) | 16 (≈ 25.8 µM) | 2 (≈ 3.22 µM) | 8 (≈ 12.9 µM) | – | –
2 | CO[C@H]1[C@@H](O)[C@H](n2ccc(=O)[nH]c2=O)O[C@@H]1[C@@H](O[C@H]1OC(C(=O)Nc2cccc(F)c2)=C[C@H](O)[C@@H]1O)C(N)=O [RKS2186] | – | 4 (≈ 7.24 µM) | 16 (≈ 29 µM) | 4 (≈ 7.24 µM) | > 32 | – | 2 (≈ 3.62 µM) | 2 (≈ 3.62 µM) | 1 (≈ 1.81 µM) | 1 (≈ 1.81 µM) | 1 (≈ 1.81 µM) | 4 (≈ 7.24 µM) | 8 (≈ 14.5 µM) | 2 (≈ 3.62 µM) | 8 (≈ 14.5 µM) | 2 (≈ 3.62 µM) | 8 (≈ 14.5 µM) | 0.01 (≈ 0.0181 µM) | –
3 | CO[C@H]1[C@@H](O)[C@H](n2ccc(=O)[nH]c2=O)O[C@@H]1[C@@H](O[C@H]1OC(C(=O)Nc2ccc(F)c(F)c2F)=C[C@H](O)[C@@H]1O)C(N)=O [RKS2235] | 17 | 4 (≈ 6.8 µM) | 16 (≈ 27.2 µM) | 2 (≈ 3.4 µM) | > 32 | 1 to 8 (≈ 1.7 to 13.6 µM) | 2 (≈ 3.4 µM) | 1 (≈ 1.7 µM) | 1 (≈ 1.7 µM) | 1 (≈ 1.7 µM) | 1 (≈ 1.7 µM) | 2 (≈ 3.4 µM) | 4 (≈ 6.8 µM) | 2 (≈ 3.4 µM) | 8 (≈ 13.6 µM) | 2 (≈ 3.4 µM) | 4 (≈ 6.8 µM) | – | –
4 | CO[C@H]1[C@@H](O)[C@H](n2ccc(=O)[nH]c2=O)O[C@@H]1[C@@H](O[C@H]1OC(C(=O)Nc2ccc(OC(F)(F)F)cc2)=C[C@H](O)[C@@H]1O)C(N)=O [RKS2241] | 24.3 | 4 (≈ 6.47 µM) | 2 (≈ 3.23 µM) | 2 (≈ 3.23 µM) | 32 (≈ 51.7 µM) | 0.5 to 16 (≈ 0.808 to 25.9 µM) | 2 (≈ 3.23 µM) | 1 (≈ 1.62 µM) | 0.5 (≈ 0.808 µM) | 0.5 (≈ 0.808 µM) | 1 (≈ 1.62 µM) | 2 (≈ 3.23 µM) | 8 (≈ 12.9 µM) | 1 (≈ 1.62 µM) | 16 (≈ 25.9 µM) | 2 (≈ 3.23 µM) | 8 (≈ 12.9 µM) | – | –
5 | CO[C@H]1[C@@H](O)[C@H](n2ccc(=O)[nH]c2=O)O[C@@H]1[C@@H](O[C@H]1OC(C(=O)Nc2ccc([N+](=O)[O-])cc2)=C[C@H](O)[C@@H]1O)C(N)=O [RKS2243] | 6.9 | 4 (≈ 6.9 µM) | > 32 | 2 (≈ 3.45 µM) | 32 (≈ 55.2 µM) | 0.5 to 8 (≈ 0.863 to 13.8 µM) | 1 (≈ 1.73 µM) | 1 (≈ 1.73 µM) | 1 (≈ 1.73 µM) | 0.5 (≈ 0.863 µM) | 0.5 (≈ 0.863 µM) | 1 (≈ 1.73 µM) | 4 (≈ 6.9 µM) | 1 (≈ 1.73 µM) | 8 (≈ 13.8 µM) | 1 (≈ 1.73 µM) | 4 (≈ 6.9 µM) | – | –
6 | CO[C@H]1[C@@H](O)[C@H](n2ccc(=O)[nH]c2=O)O[C@@H]1[C@@H](O[C@H]1OC(C(=O)Nc2ccc(Br)c(C)c2)=C[C@H](O)[C@@H]1O)C(N)=O [RKS2244] | 12.4 | 1 (≈ 1.59 µM) | 4 (≈ 6.38 µM) | 2 (≈ 3.19 µM) | > 32 | 0.5 to 8 (≈ 0.797 to 12.8 µM) | 0.5 (≈ 0.797 µM) | 0.25 (≈ 0.398 µM) | 0.25 (≈ 0.398 µM) | 0.25 (≈ 0.398 µM) | 0.25 (≈ 0.398 µM) | 0.5 (≈ 0.797 µM) | 4 (≈ 6.38 µM) | 0.5 (≈ 0.797 µM) | 8 (≈ 12.8 µM) | 1 (≈ 1.59 µM) | 4 (≈ 6.38 µM) | – | 0.25 to 8
